# Values of other authors in patent publication US11123300B2, “Immediate release tablet of a benzothiophene compound” (Hexal AG, priority 2016, dated 2021).
structure (smiles),measurement,value
"O=c1ccc2ccc(OCCCCN3CCN(c4cccc5sccc45)CC3)cc2[nH]1 [brexpiprazole, 7-[4-[4-(1-Benzothiophen-4-yl)piperazin-1-yl]butoxy]quinolin-2(1H)-one]",solubility of brexpiprazole in water,2.27 µg/mL
